Source: patent US20070122830A1, “Prohibitin-directed diagnostics and therapeutics for cancer and chemotherapeutic drug resistance” (Aurelium BioPharma Inc., priority 2005, published 2007)

What was measured:
MCF-7/ADR xenografts = assay: Mammary adenocarcinoma xenografts in nude mice, prohibitin siRNA plus chemotherapy; type: in vivo
Description: (§1) In further studies, the efficacy of a prohibitin-targeted therapeutic in treating mammary adenocarcinoma cells (MCF-7/AR) is assessed. Briefly, male […] nude mice 5 to 7 weeks old, weighing 18 g to 22 g, are used for the MCF-7/ADR xenografts. Mice receive a subcutaneous (s.c.) injection of the cells using 5×10^5 cells/inoculation under the shoulder. […] The animal's weight is measured every 4 days. Tumor growth starting on the first day of treatment is measured and the volume of the xenograft is monitored every 4 days. The mice are anaesthetized and sacrificed when the mean tumor weight is over 1 g in the control group. Tumor tissue is excised from the mice and its weight is measured. Tumor weights from mice treated with the prohibitin siRNA and chemotherapeutic drugs are compared to tumor weights from mice treated with control siRNA and chemotherapeutic drugs. Cell counts are compared. All experiments are performed in triplicate.
as §1, with “treating a” for “treating”, “(MCF-7)” for “(MCF-7/AR)”, “an s.c.” for “a subcutaneous (s.c.)”, “drugs.” for “drugs. Cell counts are compared. All experiments are performed in triplicate.”
In further studies, the efficacy of a prohibitin-targeted therapeutic in treating a mammary adenocarcinoma cells (MCF-7) is assessed. Briefly, male […] nude mice 5 to 7 weeks old, weighing 18 g to 22 g, are used for the MCF-7/ADR xenografts. Mice receive an s.c. injection of the cells using […] cells/inoculation under the shoulder.
Liposome formulations are produced as described previously (Shi et al. (2000) Proc. Natl. Acad. Sci. USA. 97(13): 7567-7572). Briefly, POPC ([…]), DDAB (0.2 μmol), DSPE-PEG 2000 (0.6 μmol), and DSPE-PEG 2000-maleimide (30 nmol) are dissolved in chloroform/methanol (2:1, vol:vol) […] a brief period of evaporation. The lipids are dispersed in 1 ml 0.05 M Tris-HCl buffer, pH 8.0, and are sonicated for 10 min. Prohibitin siRNA is added to the lipids. The liposome/siRNA dispersion is evaporated to a final concentration of 200 mM at a volume of 100 μl. The dispersion is frozen in ethanol/dry ice for 4 to 5 min. The dispersion is then thawed at 40° C. for 1 min. to 2 min., and this freeze-thaw cycle is repeated 10 times. The liposome dispersion is diluted to a lipid concentration of 40 mM, is followed by extrusion 10 times each through two stacks each of 400 nm, 200 nm, 100 nm, and 50 nm pore size polycarbonate membranes, by using a hand held extruder (Avestin, Ottawa). The mean vesicle diameters are determined by quasielastic light scattering using a Microtrac Ultrafine Particle Analyzer (Leeds-Northrup, St. Petersburg, Fla.).
The animal's weight is measured every 4 days. Tumor growth starting on the first day of treatment is measured and the volume of the xenograft is monitored every 4 days. The mice are anaesthetized and sacrificed when the mean tumor weight is over 1 g in the control group. Tumor tissue is excised from the mice and its weight is measured. Tumor weights from mice treated with the prohibitin siRNA and chemotherapeutic drugs are compared to tumor weights from mice treated with control siRNA and chemotherapeutic drugs.
In further studies, the efficacy of a prohibitin-targeted therapeutic in treating a mammary adenocarcinoma cells (MCF-7) is assessed. […]

prohibitin = assay: Prohibitin silencing by siRNA in SKOV3 cells, anti-prohibitin immunoblot; type: cell-based, human; details: for decrease in prohibitin: FIG. 7
Description: To establish the importance of prohibitin to the expression of the drug-resistant phenotype in MDA cell lines, prohibitin expression was silenced using RNAi. Briefly, the following siRNA duplexes targeting the human prohibitin mRNA were designed and purchased either from Ambion (Austin, Tex.) or Invitrogen (Carlsbad, Calif.). The siRNA duplex sequences corresponding to nucleotides 425 through 443 (GenBank SEQ ID NUMBER: U49725.1) targeting the start of the prohibitin mRNA transcript were:
For a typical siRNA transfection, 1 nmole of the annealed siRNA duplex was mixed with 1.4 ml of Opti-MEM reagent (Invitrogen). In another tube, […] of Oligofectamine reagent (Invitrogen, Carlsbad, Calif.) was mixed with […] of Opti-MEM. The two solutions were combined and mixed gently by inversion and incubated for 20 min. at RT. The resulting solution was added to the cultured cells drop by drop in a 10 cm dish (cells are approximately 40-50% confluent). The next day the transfected cells were trypsinized and seeded in 6 or 96-well plates and further incubated for the indicated amount of time (assay dependent) before further analysis.
Targeted silencing of prohibitin was performed as described in Example 2 above.

[1] = Example 10, siRNA/liposome formulation
[2] = Example 11, siRNA/immunoliposome formulation

**Q.** With “prohibitin siRNA: siRNA duplex to human prohibitin mRNA nt 425-443; sense 5′-GGAAGUGGUCUGUCUGUUAtt-3′, antisense 5′-UAACAGACAGACCACUUCCtt-3′ (sense GGAAGUGGUCUGUCUGUUATT; antisense UAACAGACAGACCACUUCCTT; chemistry not given here)” as the substance, how does the “total cell numbers of tumors vs control siRNA” value (MCF-7/ADR xenografts; Example 8, MCF-7/AR cells) read?
**A.** lower

**Q.** And the “tumor weight vs control siRNA” value (MCF-7/ADR xenografts; Example 8, MCF-7/AR cells)?
**A.** smaller tumors by weight

**Q.** What about the “total cell number in tumors vs control siRNA” value (MCF-7/ADR xenografts; Example 9, MCF-7) of the same substance?
**A.** lower

**Q.** And the “tumor weight vs control siRNA” value (MCF-7/ADR xenografts; Example 9, MCF-7)?
**A.** smaller tumors by weight

**Q.** And the “total cell number in tumors vs control siRNA” value (MCF-7/ADR xenografts; [1])?
**A.** lower

**Q.** And the “tumor weight vs control siRNA” value (MCF-7/ADR xenografts; [1])?
**A.** smaller tumors by weight

**Q.** What about the “total cell number in tumors vs control siRNA” value (MCF-7/ADR xenografts; [2]) of the same substance?
**A.** lower

**Q.** And the “tumor weight vs control siRNA” value (MCF-7/ADR xenografts; [2])?
**A.** smaller tumors by weight

**Q.** And the “repeat of prohibitin silencing” value (prohibitin; FIG. 8)?
**A.** confirmed, albeit with increased prohibitin expression

**Q.** What about the decrease in prohibitin (prohibitin; six days after treatment) of the same substance?
**A.** 71%

**Q.** And the decrease in prohibitin (prohibitin; three days after treatment)?
**A.** ~93%
